Reference: the NIST ThermoML archive (doi:10.1016/j.tca.2005.10.007)
± gives the expanded uncertainty stated by the source.

Assay: xn = mol fraction of the nth substance listed
Conditions: 101 kPa, Liquid, Vibrating tube method

CC(O)CN (configuration not stated) [1-amino-2-propanol] + O
mass density [kg/m3]
Conditions | 283.15 K | 288.15 K | 293.15 K | 298.15 K | 303.15 K | 308.15 K | 313.15 K | 318.15 K
x2 = 0.0438 | 970.22 ± 0.47 | 966.31 ± 0.47 | 962.38 ± 0.47 | 958.41 ± 0.47 | 954.42 ± 0.47 | 950.39 ± 0.46 | 946.34 ± 0.46 | 942.26 ± 0.46
x2 = 0.0801 | 971.77 ± 0.46 | 967.87 ± 0.45 | 963.94 ± 0.45 | 959.99 ± 0.45 | 956.01 ± 0.45 | 952 ± 0.45 | 947.96 ± 0.45 | 943.89 ± 0.45
x2 = 0.1269 | 974.08 ± 0.43 | 970.22 ± 0.43 | 966.31 ± 0.43 | 962.38 ± 0.43 | 958.41 ± 0.43 | 954.42 ± 0.43 | 950.39 ± 0.43 | 946.33 ± 0.42
x2 = 0.1584 | 975.52 ± 0.42 | 971.66 ± 0.42 | 967.77 ± 0.42 | 963.84 ± 0.42 | 959.89 ± 0.41 | 955.9 ± 0.41 | 951.88 ± 0.41 | 947.83 ± 0.41
x2 = 0.2003 | 977.67 ± 0.4 | 973.82 ± 0.4 | 969.94 ± 0.4 | 966.03 ± 0.4 | 962.09 ± 0.4 | 958.11 ± 0.39 | 954.1 ± 0.39 | 950.06 ± 0.39
x2 = 0.2999 | 983.38 ± 0.35 | 979.58 ± 0.35 | 975.73 ± 0.35 | 971.85 ± 0.35 | 967.94 ± 0.35 | 963.99 ± 0.35 | 960 ± 0.35 | 955.98 ± 0.35
x2 = 0.3498 | 986.51 ± 0.33 | 982.72 ± 0.33 | 978.89 ± 0.33 | 975.02 ± 0.33 | 971.12 ± 0.33 | 967.18 ± 0.33 | 963.21 ± 0.32 | 959.19 ± 0.32
x2 = 0.3999 | 989.63 ± 0.31 | 985.84 ± 0.31 | 982.02 ± 0.31 | 978.16 ± 0.3 | 974.27 ± 0.3 | 970.34 ± 0.3 | 966.36 ± 0.3 | 962.35 ± 0.3
x2 = 0.4499 | 993.04 ± 0.28 | 989.26 ± 0.28 | 985.45 ± 0.28 | 981.59 ± 0.28 | 977.71 ± 0.28 | 973.78 ± 0.28 | 969.81 ± 0.28 | 965.8 ± 0.28
x2 = 0.4968 | 996.4 ± 0.26 | 992.66 ± 0.26 | 988.85 ± 0.26 | 985 ± 0.26 | 981.12 ± 0.26 | 977.19 ± 0.26 | 973.23 ± 0.26 | 969.22 ± 0.26
x2 = 0.5122 | 997.62 ± 0.25 | 993.86 ± 0.25 | 990.05 ± 0.25 | 986.21 ± 0.25 | 982.33 ± 0.25 | 978.4 ± 0.25 | 974.44 ± 0.25 | –
x2 = 0.5501 | 1000.3 ± 0.24 | 996.55 ± 0.24 | 992.74 ± 0.24 | 988.89 ± 0.24 | 985.01 ± 0.24 | 981.09 ± 0.23 | 977.12 ± 0.23 | –
x2 = 0.6001 | 1004.18 ± 0.21 | 1000.45 ± 0.21 | 996.65 ± 0.21 | 992.81 ± 0.21 | 988.93 ± 0.21 | 985.01 ± 0.21 | 981.05 ± 0.21 | –
x2 = 0.6501 | 1007.83 ± 0.19 | 1004.09 ± 0.19 | 1000.3 ± 0.19 | 996.47 ± 0.19 | 992.61 ± 0.19 | 988.7 ± 0.19 | 984.75 ± 0.19 | –
x2 = 0.7 | 1011.17 ± 0.17 | 1007.46 ± 0.17 | 1003.71 ± 0.17 | 999.92 ± 0.16 | 996.09 ± 0.16 | 992.22 ± 0.16 | 988.3 ± 0.16 | –
x2 = 0.7501 | 1013.81 ± 0.14 | 1010.2 ± 0.14 | 1006.54 ± 0.14 | 1002.84 ± 0.14 | 999.1 ± 0.14 | 995.31 ± 0.14 | 991.48 ± 0.14 | –
x2 = 0.8 | 1014.93 ± 0.12 | 1011.54 ± 0.12 | 1008.08 ± 0.12 | 1004.58 ± 0.11 | 1001.02 ± 0.11 | 997.41 ± 0.11 | 993.74 ± 0.12 | –
x2 = 0.84 | 1014.28 ± 0.1 | 1011.22 ± 0.1 | 1008.08 ± 0.1 | 1004.86 ± 0.1 | 1001.58 ± 0.09 | 998.22 ± 0.09 | 994.79 ± 0.1 | –
x2 = 0.88 | 1011.59 ± 0.1 | 1009.04 ± 0.09 | 1006.38 ± 0.09 | 1003.61 ± 0.08 | 1000.73 ± 0.08 | 997.76 ± 0.08 | 994.67 ± 0.08 | –
x2 = 0.92 | 1007.29 ± 0.09 | 1005.41 ± 0.09 | 1003.37 ± 0.08 | 1001.17 ± 0.07 | 998.83 ± 0.07 | 996.33 ± 0.07 | 993.7 ± 0.07 | –
x2 = 0.96 | 1002.39 ± 0.09 | 1001.24 ± 0.08 | 999.86 ± 0.07 | 998.26 ± 0.07 | 996.47 ± 0.06 | 994.49 ± 0.06 | 992.33 ± 0.06 | –
